According to ChEMBL document CHEMBL5036363, “Discovery and Lead Optimization of Benzene-1,4-disulfonamides as Oxidative Phosphorylation Inhibitors” (J Med Chem, 2022):
Active and inactive are the calls of the source. The calls are words filed in the database; no cut-off is given here.

Experiments:
MIA PaCa-2 [1] = assay: Cytotoxicity against human MIA PaCa-2 cells assessed as inhibition of cell growth incubated for 7 days in glucose-containing medium by MTT assay; type: functional, cell-based; details: MIA PaCa-2, 168 h
[2] = Microsomal stability in human liver microsomes assessed as half life at 10 uM measured upto 60 mins by LC-MS/MS analysis; type: ADME, Microsome; details: for t1/2: microsomes, 1 h, 10 µM; for half-life at 10 µM: liver microsomes
[3] = Microsomal stability in mouse liver microsomes assessed as half life at 10 uM measured upto 60 mins by LC-MS/MS analysis; type: ADME, Microsome; details: for t1/2: microsomes, 1 h, 10 µM
BXPC-3 = assay: Cytotoxicity against human BXPC-3 cells assessed as inhibition of cell growth incubated for 7 days in glucose-containing medium by MTT assay; type: functional, cell-based; details: BXPC-3, 168 h
MIA PaCa-2 [4] = assay: Inhibition of oxidative phosphorylation in human MIA PaCa-2 cells assessed as reduction in ATP production incubated for 24 hrs in glucose-containing medium by CellTiter-glo luminescence assay; type: functional, cell-based
MIA PaCa-2 [5] = assay: Cytotoxicity against human MIA PaCa-2 cells assessed as inhibition of cell growth incubated for 3 days in glucose-containing medium by MTT assay; type: functional, cell-based; details: MIA PaCa-2, 72 h
[6] = Inhibition of oxidative phosphorylation in human MIA PaCa-2 cells assessed as reduction in ATP production incubated for 24 hrs in galactose-containing medium by CellTiter-glo luminescence assay; type: functional, cell-based; details: MIA PaCa-2, 24 h
[7] = Inhibition of oxidative phosphorylation complex I in human MIA PaCa-2 cells assessed as reduction in NAD+/NADH ratio incubated for 48 hrs by NAD/NADH-Glo assay; type: cell-based; details: MIA PaCa-2, 48 h
MIA PaCa-2 [8] = assay: Cytotoxicity against human MIA PaCa-2 cells assessed as inhibition of cell growth incubated for 3 days in galactose-containing medium by MTT assay; type: functional, cell-based; details: MIA PaCa-2, 72 h
[9] = Cytotoxicity against human UM16 cells assessed as inhibition of cell growth; type: functional, cell-based
NCI-H460 = assay: Cytotoxicity against human NCI-H460 cells assessed as reduction in galactose-dependent cell viability incubated for 3 days by IncuCyte live-cell imaging assay; type: functional, cell-based; details: NCI-H460, 72 h
[10] = Kinetic aqueous solubility of the compound by turbidimetric method; type: physicochemical; details: buffer
Homo sapiens = organism: Homo sapiens; assay: Inhibition of complex-I-dependent oxygen consumption in mitochondria of human PC-3 cells by luxcel-dye staining based MitoXpress method; type: functional, cell-based
[11] = Inhibition of mitochondrial complex I (unknown origin) incubated for 20 hrs by Colorimetric assay
[12] = Inhibition of mitochondrial complex I in human HepG2 cells assessed as reduction in oxygen consumption rate incubated for 6 hrs by seahorse XF analyser based assay; type: cell-based
MIA PaCa-2 [13] = assay: Antitumor activity against human MIA PaCa-2 cells xenografted in C57BL/6 mouse syngeneic model assessed as tumor growth inhibition at 5 mg/kg, ip measured upto 28 days by digital caliper method; type: functional, organism-based; details: time day <=28
[14] = Toxicity in C57BL/6 mouse xenografted with human MIA PaCa-2 cells assessed as body weight loss at 5 mg/kg, ip measured twice a week for 28 days; type: organism-based; details: in vivo, 672 h, time 28 day
[15] = Drug metabolism in mouse liver microsomes assessed as formation of hydroxylated piperidine ring moiety metabolite at 10 uM measured after 7 to 30 mins by LC-MS/MS analysis; type: ADME, Microsome; details: time 7-30 min
[16] = Drug metabolism in mouse liver microsomes assessed as formation of de-ethylated diethyl-sulfonamide moiety metabolite at 10 uM measured after 7 to 30 mins by LC-MS/MS analysis; type: ADME, Microsome; details: time 7-30 min
[17] = Inhibition of mitochondrial complex I in human pancreatic cancer cells assessed as reduction in oxygen consumption rate measured immediately by seahorse XFe96 analyser based assay; details: pancreatic cancer cell

| Compound | IC50 (MIA PaCa-2 [1]) [nM] | t1/2 [2] [min] | t1/2 [3] [min] | IC50 (BXPC-3) [nM] | inhibition (MIA PaCa-2 [4]) | IC50 (MIA PaCa-2 [5]) [nM] | IC50 [6] [nM] | IC50 [7] [nM] | IC50 (MIA PaCa-2 [8]) [nM] | also measured |
| --- | --- | --- | --- | --- | --- | --- | --- | --- | --- | --- |
| CCC(CC)S(=O)(=O)c1ccc(S(=O)(=O)N2CCC[C@@H](C(=O)N3CCN(c4nc(C(C)C)no4)CC3)C2)cc1 | 50 | 2.53 | 7.77 | 120 |  |  |  |  |  |  |
| CCN(CC)S(=O)(=O)c1ccc(S(=O)(=O)N2CCC[C@@H](C(=O)NC3COC3)C2)cc1 | 2300 | 18.5 | 27.1 | 13800 | inactive | 900 | 951 | 1660 | > 10000 |  |
| CCOC(=O)[C@H]1CCCN(S(=O)(=O)c2ccc(S(=O)(=O)N(CC)CC)cc2)C1 |  |  |  |  |  |  |  |  |  | IC50 [9]: 9470 nM |
| CC(C)c1noc(C2CCN(C(=O)[C@@H]3CCCN(S(=O)(=O)c4ccc(S(=O)(=O)C(C)C)cc4)C3)CC2)n1 | 50 |  | 32.58 |  | inactive | 20 | 17.2 | 7.1 | > 10000 | half-life at 10 µM [2]: > 60 min |
| Cc1nc(-c2nc(-c3ccc(OC(F)(F)F)cc3)no2)nn1Cc1cccc(N2CCC(S(C)(=O)=O)CC2)c1 |  |  |  |  |  |  |  |  |  | IC50 (NCI-H460): 1.4 nM |
| CCOC(=O)[C@@H]1CCCN(S(=O)(=O)c2ccc(S(=O)(=O)N(CC)CC)cc2)C1 | 400 | 0.64 | 0.7 | 600 | inactive | 90 | 118 | 312 | > 10000 | IC50 [9]: 310 nM; solubility [10]: > 200 µM |
| Cc1cc(-c2nc(-c3ccc(OC(F)(F)F)cc3)no2)nn1Cc1ccnc(N2CCN(C3CC3)CC2)c1 |  |  |  |  |  |  |  |  |  | IC50 (Homo sapiens): 10 nM |
| CC(C)NS(=O)(=O)c1ccc(S(=O)(=O)N2CCC[C@@H](C(=O)N3CCN(c4nc(C(C)C)no4)CC3)C2)cc1 | 2600 | 3.36 | 29.36 | 2600 |  | 200 |  |  | > 10000 |  |
| CCOC(=O)C1CCCN(S(=O)(=O)c2ccc(S(=O)(=O)N(CC)CC)cc2)C1 (racemic) |  |  |  |  |  |  |  |  |  | IC50 [9]: 580 nM |
| FC(F)(F)c1ccc(/C=C/c2nc(COc3ccc(CCCCn4ccnn4)cc3)co2)cc1 [MUBRITINIB] |  |  |  |  |  |  |  |  |  | IC50 [11]: 51 nM |
| N=C(N)NC(=N)NCCc1ccccc1 [PHENFORMIN] |  |  |  |  |  |  |  |  |  | IC50 [12]: 3800 nM |
| CC(C)c1noc(N2CCN(C(=O)[C@@H]3CCCN(S(=O)(=O)c4ccc(S(=O)(=O)C5CCC5)cc4)C3)CC2)n1 | 70 |  |  |  | inactive | 20 | 42.6 | 16 | > 10000 | Activity (MIA PaCa-2 [13]): Active; Activity [14]: Non-Toxic |
| CC(C)c1noc(N2CCN(C(=O)[C@@H]3CCCN(S(=O)(=O)c4ccc(S(=O)(=O)C(C)C)cc4)C3)CC2)n1 | 70 |  |  |  | inactive |  | 29.2 | 30.4 | > 10000 | half-life at 10 µM [2]: > 60 min; half-life at 10 µM ([3]; liver microsomes): > 60 min |
| CCN(CC)C(=O)c1ccc(S(=O)(=O)N2CCC[C@@H](C(=O)N3CCN(c4nc(C(C)C)no4)CC3)C2)cc1 | 100 | 12.76 | 10.47 | 1400 |  | 70 |  |  | > 10000 |  |
| CCN(CC)S(=O)(=O)c1ccc(S(=O)(=O)N2CCC[C@@H](C(=O)N3CCN(c4nc(C(C)C)no4)CC3)C2)cc1 | 50 | 1.7 | 7.7 |  | inactive |  | 30.7 | 8.2 | > 10000 | Drug metabolism [15]: Metabolite_Detected; Drug metabolism [16]: Metabolite_Detected |
| CN(C)C(=N)NC(=N)N [METFORMIN] |  |  |  |  |  |  |  |  |  | IC50 [17]: 800000 nM |
| CCOC(=O)[C@@H]1CCCN(C(=O)c2ccc(S(=O)(=O)N(CC)CC)cc2)C1 | > 10000 |  |  | > 10000 |  | > 3000 |  |  | > 10000 |  |
| CCOC(=O)[C@@H]1CCCN(S(=O)(=O)c2ccc3cc(S(=O)(=O)N(CC)CC)ccc3c2)C1 | 7400 |  |  | 13400 |  | > 3000 |  |  | > 10000 |  |
| CCN(CC)S(=O)(=O)c1ccc(S(=O)(=O)N2CCC[C@@H](C(=O)N3CCC(c4nc(C(C)C)no4)CC3)C2)cc1 | 40 |  |  | 300 |  | 30 |  |  | > 10000 |  |
| CCN(CC)S(=O)(=O)c1ccc(S(=O)(=O)N2CCC[C@@H](C(=O)NC)C2)cc1 | 8600 |  |  | 13800 |  | 2000 |  |  | > 10000 |  |
